Data published in ChEMBL document CHEMBL3351493, “Beta-aminoketones as prodrugs for selective irreversible inhibitors of type-1 methionine aminopeptidases” (Bioorg Med Chem Lett, 2014).
The source made the active and inactive calls. The rule behind the calls is not given here.

How the values were obtained:
[1] = test system: Ca-Ski; experiment: Cytotoxicity against human CaSki cells at 1.6 to 100 ug/ml after 72 hrs by crystal violet assay; type: functional, cell-based
[2] = test system: Calu-6; experiment: Cytotoxicity against human Calu6 cells at 1.6 to 100 ug/ml after 72 hrs by crystal violet assay; type: functional, cell-based
[3] = test system: HaCaT; experiment: Cytotoxicity against human HaCaT cells at 1.6 to 100 ug/ml after 72 hrs by crystal violet assay; type: cell-based
[4] = test system: SW707; experiment: Cytotoxicity against human SW707 cells at 1.6 to 100 ug/ml after 72 hrs by crystal violet assay; type: functional, cell-based
[5] = test system: CAPAN-1; experiment: Cytotoxicity against human Capan1 cells at 1.6 to 100 ug/ml after 72 hrs by crystal violet assay; type: functional, cell-based
[6] = test system: A 172; experiment: Cytotoxicity against human A172 cells at 1.6 to 100 ug/ml after 72 hrs by crystal violet assay; type: functional, cell-based
[7] = Cytotoxicity against human Flow 2002 cells at 1.6 to 100 ug/ml after 72 hrs by crystal violet assay; type: cell-based; details: flow 2002, 72 h
[8] = test system: BT-474; experiment: Cytotoxicity against human BT474 cells at 1.6 to 100 ug/ml after 72 hrs by crystal violet assay; type: functional, cell-based
[9] = test system: A-431; experiment: Cytotoxicity against human A431 cells at 1.6 to 100 ug/ml after 72 hrs by crystal violet assay; type: functional, cell-based
[10] = Glutathione reactivity assessed as second-order rate constant at 250 uM at pH 6.0 by HPLC-UV method
[11] = test system: MeWo; experiment: Cytotoxicity against human MeWo cells at 1.6 to 100 ug/ml after 72 hrs by crystal violet assay; type: functional, cell-based
[12] = test system: Escherichia coli; experiment: Antimicrobial activity against Escherichia coli BL21(DE3) assessed as inhibition of bacterial growth incubated at 37 degC for 7 hrs; type: functional
[13] = molecular target: Methionine aminopeptidase 2 (Homo sapiens, UniProt P50579); details: sf9
Methionine aminopeptidase 2, sequence (P50579 whole entry): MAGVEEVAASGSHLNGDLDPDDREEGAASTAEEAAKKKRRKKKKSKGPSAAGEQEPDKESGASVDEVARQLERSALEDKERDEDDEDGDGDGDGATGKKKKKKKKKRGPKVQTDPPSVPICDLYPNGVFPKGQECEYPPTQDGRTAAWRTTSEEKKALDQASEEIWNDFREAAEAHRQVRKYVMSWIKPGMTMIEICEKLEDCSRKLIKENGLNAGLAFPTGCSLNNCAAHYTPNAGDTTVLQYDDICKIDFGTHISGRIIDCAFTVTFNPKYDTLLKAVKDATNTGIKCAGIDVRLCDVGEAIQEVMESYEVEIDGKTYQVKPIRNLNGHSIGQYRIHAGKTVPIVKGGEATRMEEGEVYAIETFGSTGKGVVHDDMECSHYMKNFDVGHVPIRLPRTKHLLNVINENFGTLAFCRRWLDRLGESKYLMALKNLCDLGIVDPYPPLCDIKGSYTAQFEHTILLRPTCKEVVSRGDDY
Description: Inhibition of human MetAP-2 expressed in Sf9 cells incubated for 60 mins before MGMM substrate addition by fluorescence assay

[14] = molecular target: T1, Methionine aminopeptidase (Escherichia coli K-12, UniProt P0AE18); experiment: Inhibition of C-terminal poly-His-tagged Escherichia coli MetAP expressed in Escherichia coli BL21(DE3) incubated for 30 mins before MGMM substrate addition by fluorescence assay
T1 sequence (P0AE18 whole entry): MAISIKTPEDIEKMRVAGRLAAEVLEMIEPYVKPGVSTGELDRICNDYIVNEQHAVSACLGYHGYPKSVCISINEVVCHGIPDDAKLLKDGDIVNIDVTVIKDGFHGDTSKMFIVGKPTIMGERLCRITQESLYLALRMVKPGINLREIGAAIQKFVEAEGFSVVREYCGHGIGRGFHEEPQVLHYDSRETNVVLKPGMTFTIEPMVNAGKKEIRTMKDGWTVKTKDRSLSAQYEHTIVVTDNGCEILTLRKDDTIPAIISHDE

[15] = molecular target: Methionine aminopeptidase (Staphylococcus aureus (strain COL), UniProt Q5HEN6); experiment: Inhibition of N-terminal poly-His-tagged Staphylococcus aureus COL MetAP expressed in Escherichia coli BL21(DE3) incubated for 30 mins before MGMM substrate addition by fluorescence assay; set-up: species or system Staphylococcus aureus subsp. aureus COL
Methionine aminopeptidase (Staphylococcus aureus (strain COL), UniProt Q5HEN6), sequence (Q5HEN6 whole entry): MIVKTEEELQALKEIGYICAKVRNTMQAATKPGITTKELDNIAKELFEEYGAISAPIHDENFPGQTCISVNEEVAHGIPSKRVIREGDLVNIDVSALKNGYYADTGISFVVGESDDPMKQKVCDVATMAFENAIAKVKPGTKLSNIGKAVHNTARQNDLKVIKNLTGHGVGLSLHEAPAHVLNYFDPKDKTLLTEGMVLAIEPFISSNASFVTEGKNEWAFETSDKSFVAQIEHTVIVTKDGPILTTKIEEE

[16] = test system: Escherichia coli; experiment: Antimicrobial activity against Escherichia coli BL21(DE3) assessed as inhibition of bacterial growth at 200 uM incubated at 37 degC for 7 hrs; type: functional
[17] = Half life assessed as decomposition into amines and unsaturated ketones at 250 uM in 50 mM Tris/maleate pH 7.5 buffer by HPLC method; type: physicochemical
[18] = molecular target: Methionine aminopeptidase 1 (Homo sapiens, UniProt P53582); experiment: Inhibition of N-terminal poly-His-tagged human MetAP-1 expressed in Escherichia coli BL21(DE3) incubated for 30 mins before MGMM substrate addition by fluorescence assay

SMILES	Activity [1]	Activity [2]	Activity [3]	Activity [4]	Activity [5]	Activity [6]	Activity [7]	Activity [8]	Activity [9]	Activity [11]	MIC [12] [µg/mL]	also measured
C=C1CCc2ccc(OC)cc2C1=O	Active	Active	Toxic	Active	Active	Active	Toxic	Active	Active	Active		K [10]: 1.7 M⁻¹ s⁻¹
CN(C)[C@@H]1C(O)=C(C(N)=O)C(=O)[C@@]2(O)C(O)=C3C(=O)c4c(O)cccc4[C@@](C)(O)[C@H]3C[C@@H]12.Cl [TETRACYCLINE HYDROCHLORIDE]											1	
C[C@@H]1O[C@@H]1P(=O)([O-])[O-].[Na+].[Na+] [PHOSPHOMYCIN DISODIUM]											20	
NC[C@H]1O[C@H](O[C@H]2[C@H](O)[C@@H](O[C@H]3O[C@H](CO)[C@@H](O)[C@H](N)[C@H]3O)[C@H](N)C[C@@H]2N)[C@H](O)[C@@H](O)[C@@H]1O.O=S(=O)(O)O [KANAMYCIN SULFATE]											10	
COc1ccc2c(c1)C(=O)C(CN(C)C)CC2.Cl (configuration not stated)	Active	Active	Toxic	Active	Active	Active	Toxic	Active	Active	Active		IC50 [13]: Not Active; IC50 ([14]; read-out: IC50): 2100 nM; IC50 [15]: Not Active; inhibition at 200 µM ([16]; BL21-DE3, 7 h): 49%; half-life at 250 µM ([17]; Tris/maleate buffer, pH 7.5): 6.8 h; IC50 [18]: Not Active
CN(C)CC1(C)Cc2ccccc2C1=O.Cl (configuration not stated)	inactive	inactive	Non-toxic	inactive	inactive	inactive	Non-toxic	inactive	inactive	inactive		IC50 [13]: Not Active; IC50 [14]: Not Active; IC50 [15]: Not Active; inhibition [16]: inactive; t1/2 ([17]; buffer, pH 7.5, 250 µM): Stable; IC50 [18]: Not Active
C=C1CCc2ccccc2C1=O	Active	Active	Toxic	Active	Active	Active	Toxic	Active	Active	Active		K [10]: 1.4 M⁻¹ s⁻¹
